The source made the active and inactive calls. How the calls were made is not given here.
Each molecule was assayed on CHOP reporter cell assay, percent of control (assay: CHOP reporter inhibitor potency, dose response, cell-based (AID 504322);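 further: CHO cells carrying a CHOP reporter stimulated with tunicamycin to induce ER stress; potency is for inhibition of the stress-induced reporter signal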).

| SMILES | IC50 |
| --- | --- |
| Cn1cnc([N+](=O)[O-])c1S(=O)(=O)c1ccc(Cl)cc1 | 7.04 µM (inactive) |
| CCCOc1ccc(N2C(=O)CC(SC(=NC)Nc3ccc(F)cc3)C2=O)cc1 (stereo not drawn) | > 10 µM (inactive) |
| Cc1ccc(NN2C(=O)C=C(c3ccc(Cl)cc3)C2=O)cc1 | 2.09 µM |
| Cc1cccc(/C=C/C(=O)c2cc(Br)ccc(=O)c2O)c1 | 8.57 µM (inactive) |
| Cc1cccc(N2CCN(C(=O)c3c(C)nn(Cc4ccccc4Cl)c3C)CC2)c1C | 9.26 µM (inactive) |
| CC(=O)C1=C(c2ccc(Br)cc2)C(=O)c2ccccc2C1=O | 5.57 µM (inactive) |
| CCC(C)c1ccc(O)c(NC(=O)c2cncc(Br)c2)c1 (stereo not drawn) | 6.67 µM (inactive) |
| Cc1cc(C)c2nc(C(F)(F)F)c(C#N)c(N)c2c1 | 8.25 µM (inactive) |
| COC(=O)c1ccc2c(c1)C(C)(C)C(/C=C/c1ccc(OC)c(OC)c1OC)=[N+]2C | 9.48 µM (inactive) |
| N#C/C(=C\c1ccc([N+](=O)[O-])o1)C(=O)Nc1ccc(F)cc1 | > 10 µM (inactive) |
| C#CC(=O)N(c1cccc(OC)c1)C(C(=O)NC1CCCC1)c1cccs1 (stereo not drawn) | 4.53 µM |
| O=S1(=O)C=C(Sc2nc3cc(Cl)ccc3o2)c2ccccc21 | 2.91 µM |
| C=CCSc1nc2ccccc2n1C(=O)/C=C/c1cc(OC)c(OC)c(OC)c1 | 4.16 µM |
| FC(F)C(F)(F)C(F)(F)C(F)(F)c1cc(-c2ccccc2)n[nH]1 | 9.67 µM (inactive) |
| CCCCn1c(N2CCC(Cc3ccccc3)CC2)nc2c1c(=O)[nH]c(=O)n2C | 6.06 µM (inactive) |
| CC1=CCC[C@@H]2[C@@](C)(CC/C(C)=C/C(=O)O)[C@H](C)CC[C@@]12C | 9.68 µM (inactive) |
| CS(=O)(=O)c1ncc(Cl)c(C(=O)Nc2ccc(N3CCOCC3)cc2)n1 | > 10 µM (inactive) |
| CCc1ccc(/C=C2\SC(=S)N(CCCC(=O)Nc3ccccn3)C2=O)cc1 | 0.16 µM |
| O=C(CCl)Nc1cccc(-c2cnc3ccccc3n2)c1 | 6.64 µM (inactive) |
| CCOC(=O)CN1C(c2ccc(O)cc2)Nc2ccc(Br)cc2C1c1ccccc1 (stereo not drawn) | 9.53 µM (inactive) |
| CC(C)c1ccc(O)c(NC(=S)NC(=O)CCc2ccccc2)c1 | 2.97 µM (inactive) |
| Cc1cc(C2=NNC(=NC3CC3)SC2)c(C)n1-c1ccccc1F | < 0.16 µM |
| OC(CNCC(c1ccc(Cl)cc1Cl)c1c[nH]c2ccccc12)c1ccccc1 (stereo not drawn) | 1.79 µM |
| CC1CCCC(NCC(O)COC(c2ccc(F)cc2)c2ccc(F)cc2)C1C (stereo not drawn) | 9.43 µM (inactive) |
| N#Cc1nccnc1S(=O)(=O)c1cccs1 | 2.67 µM |

| SMILES | IC50 |
| --- | --- |
| O=S(=O)(NCC(Nc1ccc(Cl)cc1)c1ccccc1)c1ccc(Cl)cc1 (stereo not drawn) | 6.69 µM (inactive) |
| Cc1cc(/C=N/n2cnnc2)c(C)n1-c1ccc(OCc2ccc(Cl)cc2)cc1 | 0.38 µM |
| O=[N+]([O-])c1ccc(COc2ccc(-c3[nH]ncc3-c3ccccc3)c(O)c2)cc1 | 9.61 µM (inactive) |
| Nc1ccc2c(c1)C(=O)C(=O)c1ccccc1-2 | 5.08 µM (inactive) |
| COc1ccc(N=CC2=C(O)c3ccccc3C2=O)c(OC)c1 | 6.53 µM (inactive) |
| CC(C)(C)OC(=O)N[C@@H](Cc1ccccc1)c1nnc(S(=O)(=O)Cc2ccccc2)o1 | 5.59 µM (inactive) |
| Cc1cc(Cl)ccc1OCC(=O)N[C@@H](Cc1ccccc1)c1nc2ccccc2[nH]1 | 9.23 µM (inactive) |
| CC(C)C[C@H](NC(=O)c1[nH]cnc1C(=O)Nc1ccccc1)C(=O)OC(C)(C)C | 5.95 µM (inactive) |
| Cn1c(=O)cc(SCC(=O)NCCC2=CCCCC2)c2ccc(Cl)cc21 | 5.34 µM (inactive) |
| O=C1C(Cl)=C(N2CCCCC2)C(=O)C(Cl)=C1c1cnc(N2CCCCC2)s1 | 9.7 µM (inactive) |
| COc1cc(CNCc2ccccn2)ccc1OCc1ccc(Cl)cc1Cl | 6.74 µM (inactive) |
| O=C(CN1CCN(c2ncc(C(F)(F)F)cc2Cl)CC1)NCCNc1ncc(C(F)(F)F)cc1Cl | 3.88 µM |
| CCCCCCn1c(SCCC)nc2c1c(=O)[nH]c(=O)n2C | 5.41 µM |
| Cc1nn(Cc2c(Cl)cccc2Cl)c(C)c1NC(=O)c1cc(C(C)C)on1 | > 10 µM (inactive) |
| O=C(Nc1ccc(Cl)c(C(F)(F)F)c1)NC1CC2CCCC(C1)N2Cc1ccccc1 (stereo not drawn) | 7.84 µM (inactive) |
| CC1CCc2c(sc3ncn(CC(=O)N=Nc4c(O)[nH]c5ccccc45)c(=O)c23)C1 (stereo not drawn) | 7.42 µM (inactive) |
| COc1ccc(C(=O)/C=C/C(=O)N(CC(=O)NC2CCCCC2)Cc2cccs2)c(O)c1 | 9.94 µM (inactive) |
| O=C1NCN(c2ccccc2)C12CCN(CCCC(c1ccc(F)cc1)c1ccc(F)cc1)CC2 | 7.76 µM (inactive) |
| Fc1ccc(-n2nnnc2-c2cnc(-c3cccs3)nc2C(F)(F)F)cc1 | 6.67 µM (inactive) |
| CCN1/C(=C/C=C/C=C/c2sc3ccccc3[n+]2CC)Sc2ccccc21 | 0.87 µM (inactive) |
| CC(C)C(=O)N1CCC(CN=Cc2c(O)n(C3CCCCC3)c(=O)n(C3CCCCC3)c2=O)CC1 | 9.9 µM (inactive) |
| Cc1ccc(/C=C2\SC(=S)N(CCCC(=O)Nc3ccc(O)cc3)C2=O)cc1 | 0.17 µM |
| O=c1oc2ccccc2c(Cl)c1CN1CCCCC1 | 9.26 µM (inactive) |
| O=C(Cc1ccccc1)Nc1cccc(N2C(=O)C=CC2=O)c1 | 9.71 µM (inactive) |
| CCCCCCCCCS(=O)(=O)N/N=C/c1cccc([N+](=O)[O-])c1 | 3.9 µM (inactive) |

| SMILES | IC50 |
| --- | --- |
| CC(C)(C)c1ccc(O)c(N=Cc2cc(Br)ccc2O)c1 | 9.15 µM (inactive) |
| O=C1C(=O)c2ccc(-c3ccccc3)cc2-c2ccccc21 | 3.36 µM |
| Oc1ccc(Br)cc1-c1nc2cnccn2c1NC1CCCCC1 | > 10 µM (inactive) |
| Cc1ccc(-n2c(=O)[nH]c3c(C(N)=O)nc(-c4ccc(C)o4)nc32)cc1 | > 10 µM (inactive) |
| O=C(Nc1cccc(Cl)c1)Nc1ccnc(-c2cccnc2)n1 | > 10 µM (inactive) |
| Cc1cccc(NC(=O)CSc2nc(C)c(CC(=O)c3ccc(Br)cc3)c(C)c2C#N)c1C | 5.95 µM (inactive) |
| O=C1C(Cl)=C(Nc2ccccc2)C(=O)c2ccccc21 | > 10 µM (inactive) |
| CCOc1ccc(C2=C/C(=C/c3cccnc3)C(=O)O2)cc1 | 9.39 µM (inactive) |
| CC(C)(C)c1ccc(OCC(=O)N/N=C/C2CC=CCC2)cc1 (stereo not drawn) | 7.48 µM (inactive) |
| CCCCCCN1C=CC(=C2C(=O)c3ccccc3C2=O)C=C1 | 6.36 µM (inactive) |
| N#CC1=C(N)N2C(=C(C#N)C1c1cccc(Br)c1)Nc1ccccc12 (stereo not drawn) | 5.07 µM (inactive) |
| CCn1c(C)nc2cc(-c3nc4n(n3)Cc3ccccc3-4)ccc21 | < 0.16 µM (inactive) |
| Cc1ccc(-c2nc(N)sc2-c2ccc(C)cc2)cc1 | 9.83 µM (inactive) |
| CCOc1cc(NC(=S)NCC(C)C)c(OCC)cc1NC(=O)c1cccs1 | > 10 µM (inactive) |
| CC(C)(C)c1ccc(S(=O)(=O)NCC(=O)Nc2sc3c(c2C(N)=O)CCCC3)cc1 | 9.83 µM (inactive) |
| Cc1ccc(-c2[nH]ncc2/C=N/n2c(COc3ccccc3)nc3ccccc3c2=O)cc1 | 3.18 µM (inactive) |
| O=C1CC(c2ccccc2)CC(O)=C1C=Nc1cccc(Cl)c1 (stereo not drawn) | 5.16 µM |
| COc1ccccc1NCC(O)COc1ccc(C(C)(C)C)cc1 (stereo not drawn) | 9.32 µM (inactive) |
| FC(F)(F)c1cccc(NC(=S)Nc2ccc(Cl)cc2Cl)c1 | 6.1 µM (inactive) |
| Cc1cc(C(=O)N/N=C/c2ccc(-c3cccc(Cl)c3Cl)o2)n[nH]1 | 5.27 µM (inactive) |
| N#CC(C#N)=C1C=CC=CN1/C(=C\c1ccccc1Cl)C(=O)c1ccccc1 | > 10 µM (inactive) |
| CCCCCCCCCCCCCCCC[n+]1cccc(C(=O)N(CC)CC)c1 | 5.06 µM (inactive) |
| Cc1cccc(OCc2nnc(SCc3nc4cc(C(F)(F)F)ccc4c(=O)[nH]3)o2)c1 | 8.17 µM (inactive) |
| Cc1ccc2nc(NC(=O)CSCC(=O)OCC(=O)c3ccc(Br)cc3)sc2c1 | 5.35 µM (inactive) |
| CCOc1ccc(C(=O)C(CCC(CN(C)C)C(=O)c2ccc(OCC)cc2)CN(C)C)cc1 (stereo not drawn) | 9.69 µM (inactive) |

| SMILES | IC50 |
| --- | --- |
| C=CCSc1n[nH]c(-c2ccc(OCCCC)cc2)n1 | > 10 µM (inactive) |
| CC1=CC(C)(C)N2C(=O)C3(SCC(=O)N3c3ccc(F)cc3)c3cc(C)cc1c32 (stereo not drawn) | > 10 µM (inactive) |
| Fc1ccc(-c2nn(-c3ccccc3)cc2CNCc2ccccc2)cc1 | 9.62 µM (inactive) |
| CC1(C)C[C@H]2C=C(C=O)[C@]3(C=O)C[C@]3(C)[C@H]2C1 | 0.85 µM |
| Cn1c2ccccc2c(=O)c2c(=O)n(C3CCCCCC3)c(C3CCCCC3)nc21 | 9.65 µM (inactive) |
| COc1ccc(Cn2c(C)c(C)c(C#N)c2NC(=O)Nc2ccc(Cl)cc2)cc1 | 7.29 µM (inactive) |
| CN1CCc2c(sc(NC(=O)c3cc4cc([N+](=O)[O-])ccc4s3)c2C(N)=O)C1 | 4.6 µM |
| O=C1NC(=S)S/C1=C\C=C\c1ccc([N+](=O)[O-])o1 | 9.29 µM (inactive) |
| COc1ccc(N=c2oc3ccc(OC)cc3cc2-c2nc3ccccc3[nH]2)cc1 | 9.72 µM (inactive) |
| O=C(C1=C(c2ccccc2)C(=O)c2ccccc2C1=O)c1ccccc1 | 4.73 µM |
| NC(=S)n1[nH]c(-c2ccc([N+](=O)[O-])cc2)c(N=Nc2ccc(Cl)cc2)c1=O | 5.74 µM (inactive) |
| Cc1cc(/C=N/n2cnnc2)c(C)n1-c1ccc(OCc2ccccc2F)cc1 | 4.88 µM |
| C[C@H](NC(=O)c1[nH]cnc1C(=O)Nc1ccc(Cl)cc1)C(=O)OC(C)(C)C | 5.47 µM (inactive) |
| O=C(CCl)Nc1cc(-c2ccccc2)nn1-c1ccccc1 | 9.78 µM (inactive) |
| Cc1cc(/C=c2/sc3nc4ccccc4n3c2=O)c(C)n1-c1ccccn1 | < 0.16 µM |
| CCOC(=O)/C=C/S(=O)(=O)c1ccc(NC(C)=O)cc1 | 4.78 µM |
| Cc1ccc(N2C(=O)NC(=O)/C(=C\C=C\c3ccco3)C2=O)cc1 | 9.55 µM (inactive) |
| CCCCCCSc1nsc(NC(=O)CCC)n1 | 9.9 µM (inactive) |
| Cc1ccc(C(=O)Nc2cnc3ccccc3c2)cc1 | 8.6 µM (inactive) |
| CN1C2CCC1/C(=C/c1ccccn1)C(=O)/C2=C\c1ccccn1 | 2.04 µM |
| Cc1nc(NC(=O)CSc2nc3cccnc3n2Cc2ccccc2)sc1C | > 10 µM (inactive) |
| CCOC(=O)c1c2ccc(OCC(=O)N/N=C/c3ccc(C)cc3)cc2n2ccccc12 | 9.52 µM (inactive) |
| CC1CCC(C(C)C)C(OCC(O)CN2CCN(Cc3ccccc3)CC2)C1 (stereo not drawn) | 7 µM (inactive) |
